Results on 19 compounds are retold here after patent publication US9708336B2, “Metallo-beta-lactamase inhibitors” (priority 2014, dated 2017).

Structures are written as SMILES. Like-named read-outs stand apart in the source and are kept apart here.

The term IC50 denotes the concentration needed to halve the response being measured.

One test deals with NDM-1 (Klebsiella pneumoniae, UniProt C7C422). The test can be described thus: biochemical. Format: biochemical. The settings on record: NDM-1 enzyme, CCF2-FA fluorescence assay; read-out: NDM-1 IC50.
For another test, the target named is IMP-1 (Serratia marcescens, UniProt P52699). Nature of the test: biochemical. Format: biochemical. The settings on record: IMP-1 enzyme, CCF2-FA fluorescence assay; read-out: IMP-1 IC50.
For a further test, the target named is VIM-1 (Pseudomonas aeruginosa (strain ATCC 15692 / DSM 22644 / CIP 104116 / JCM 14847 / LMG 12228 / 1C / PRS 101 / PAO1), UniProt A0A0F7KYQ8). Nature of the test: Enzyme activity: determination of IC50, fluorescence assay with CCF2-FA substrate (VIM-1). In kind it is biochemical. As to conditions: CCF2-FA fluorescence assay.
For test [1], the system named is Escherichia coli expressing NDM-1 (CLB30005). The test can be described thus: Antibiotic potentiation activity: synergistic concentration (MITC95) with imipenem, OD600 growth. Format: cell-based. As to conditions: Escherichia coli expressing NDM-1 (CLB30005), 95% growth inhibition. Put shortly:
(§1)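 Spectrophotometric growth readings were taken following 22–24 h at 35 °C. Before that, organisms in 1.1× CAMHB were mixed with imipenem, used at 4 μg/ml in assay, and test compound.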

The subject of test [2] is Klebsiella pneumoniae expressing VIM-1 (IHMA599644). The description is as above. The settings on record: Klebsiella pneumoniae expressing VIM-1 (IHMA599644), 95% growth inhibition. Format: cell-based. The method, boiled down: as §1
In test [3] the test system is Serratia marcescens expressing IMP-1 (CL5741). Described as above. In kind it is cell-based. The settings on record: Serratia marcescens expressing IMP-1 (CL5741), 95% growth inhibition. Put shortly:
as §1

[4] abbreviates: VIM-1 enzyme, read-out: VIM-1 IC50.

Chain of NDM-1 (C7C422 whole entry, looked up, species assumed): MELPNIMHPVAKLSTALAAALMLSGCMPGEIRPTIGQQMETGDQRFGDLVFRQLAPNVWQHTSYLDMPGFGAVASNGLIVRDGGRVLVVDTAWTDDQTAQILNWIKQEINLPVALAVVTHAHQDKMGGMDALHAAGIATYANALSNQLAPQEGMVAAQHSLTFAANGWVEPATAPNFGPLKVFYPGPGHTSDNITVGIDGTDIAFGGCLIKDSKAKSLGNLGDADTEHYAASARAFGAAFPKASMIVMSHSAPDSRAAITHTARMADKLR
Chain of IMP-1 (P52699 whole entry, looked up): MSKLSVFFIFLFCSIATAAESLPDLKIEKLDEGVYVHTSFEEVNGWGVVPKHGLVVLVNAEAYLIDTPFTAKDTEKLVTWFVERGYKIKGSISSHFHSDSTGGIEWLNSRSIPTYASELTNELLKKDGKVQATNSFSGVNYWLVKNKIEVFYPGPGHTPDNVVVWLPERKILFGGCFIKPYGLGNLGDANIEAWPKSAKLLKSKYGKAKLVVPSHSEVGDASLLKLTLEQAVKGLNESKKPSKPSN

Turning to `Cc1ccc(-c2cc(-c3ccc(C(N)=O)cc3)cc(S(N)(=O)=O)c2-c2nn[nH]n2)cc1` [Example 296, 4″-methyl-5′-sulfamoyl-4′-(2H-tetrazol-5-yl)-[1,1′:3′,1″-terphenyl]-4-carboxamide], the figures for the IC50 on NDM-1, at IMP-1 and at VIM-1 (setting [4]) were 0.000637 µM, 0.0548 µM and 0.127 µM, respectively. In addition, in test [1], the “Escherichia coli MITC95” value was found to be 1.953 µM. Moreover, the “Klebsiella pneumoniae MITC95” value in test [2] was above 200 µM. Moreover, the “Serratia marcescens MITC95” value in test [3] is 3.125 µM.

In the case of `NS(=O)(=O)c1cccc(C(=O)O)c1-c1nn[nH]n1` [Example 297, 3-Sulfamoyl-2-(2H-tetrazol-5-yl)benzoic acid], the results for the IC50 at NDM-1, on IMP-1 and at VIM-1 (setting [4]) were 2.48 µM, 20 µM and 20 µM, respectively. Moreover, the “Escherichia coli MITC95” value in test [1] was 12.5 µM. Moreover, the “Klebsiella pneumoniae MITC95” value in test [2] was above 200 µM. The “Serratia marcescens MITC95” value in test [3] is above 200 µM.

As for `Cc1ccc(-c2cccc(S(N)(=O)=O)c2-c2nnn[nH]2)cn1` [Example 299, 3-(6-methylpyridin-3-yl)-2-(1H-tetrazol-5-yl)benzenesulfonamide], the IC50 on NDM-1 stood at 0.0118 µM; on IMP-1, 0.444 µM; on VIM-1 (VIM-1 IC50, VIM-1 enzyme), 0.11 µM. Further, in test [1], the “Escherichia coli MITC95” value turned out to be 0.1953 µM. In test [2], the “Klebsiella pneumoniae MITC95” value worked out at 37.5 µM. Moreover, the “Serratia marcescens MITC95” value in test [3] amounted to 18.75 µM.

As to `NCCc1ccc(-c2cccc(S(N)(=O)=O)c2-c2nnn[nH]2)cc1` [Example 300, 4′-(2-aminoethyl)-2-(1H-tetrazol-5-yl)-[1,1′-biphenyl]-3-sulfonamide], the IC50 on NDM-1 is 0.0372 µM; on IMP-1, 0.373 µM; at VIM-1 (setting [4]) it was 0.0315 µM. The “Escherichia coli MITC95” value in test [1] was 1.172 µM. In test [2], the “Klebsiella pneumoniae MITC95” value stood at 9.375 µM. The “Serratia marcescens MITC95” value in test [3] was found to be 12.5 µM.

Consider `Nc1ncc(-c2cccc(S(N)(=O)=O)c2-c2nnn[nH]2)cn1` [Example 301, 3-(2-aminopyrimidin-5-yl)-2-(1H-tetrazol-5-yl)benzenesulfonamide], for which the IC50 is 0.0082 µM at NDM-1, 1.38 µM on IMP-1 and 0.282 µM on VIM-1 (setting [4]). Moreover, the “Escherichia coli MITC95” value in test [1] is 0.7813 µM. For the same compound, in test [2], the “Klebsiella pneumoniae MITC95” value came out at 25 µM. The “Serratia marcescens MITC95” value in test [3] worked out at 37.5 µM.

In the case of `CCCc1ccc(-c2cccc(S(N)(=O)=O)c2-c2nnn[nH]2)cn1` [Example 302, 3-(6-propylpyridin-3-yl)-2-(1H-tetrazol-5-yl)benzenesulfonamide], the results for the half-inhibitory concentration (IC50) on NDM-1, at IMP-1 and on VIM-1 (setting [4]) were 0.00585 µM, 0.111 µM and 0.0385 µM, respectively. For the same compound, the “Escherichia coli MITC95” value in test [1] is 0.3906 µM. For the same compound, in test [2], the “Klebsiella pneumoniae MITC95” value amounted to 150 µM. Further, in test [3], the “Serratia marcescens MITC95” value was found to be 3.906 µM.

In the case of `NC(=O)Cc1ccc(-c2cccc(S(N)(=O)=O)c2-c2nnn[nH]2)cc1` [Example 303, 2-(3′-sulfamoyl-2′-(1H-tetrazol-5-yl)-[1,1′-biphenyl]-4-yl)acetamide], the concentration for half-maximal inhibition (IC50) on NDM-1 amounted to 0.00506 µM; on IMP-1, 0.059 µM; at VIM-1 (setting [4]), 0.0446 µM. Also, in test [1], the “Escherichia coli MITC95” value amounted to 0.9766 µM. For the same compound, the “Klebsiella pneumoniae MITC95” value in test [2] came to 18.75 µM. Also, the “Serratia marcescens MITC95” value in test [3] was 2.344 µM.

As for `Cc1nc2ccccc2n1Cc1ccc(-c2cccc(S(N)(=O)=O)c2-c2nnn[nH]2)cc1` [Example 304, 4′-((2-methyl-1H-benzo[d]imidazol-1-yl)methyl)-2-(1H-tetrazol-5-yl)-[1,1′-biphenyl]-3-sulfonamide], the half-inhibitory concentration (IC50) was 0.0292 µM on NDM-1, 0.0503 µM on IMP-1 and 0.103 µM at VIM-1 (setting [4]). The “Escherichia coli MITC95” value in test [1] was 6.25 µM. Moreover, the “Klebsiella pneumoniae MITC95” value in test [2] is above 200 µM. In addition, in test [3], the “Serratia marcescens MITC95” value worked out at 7.031 µM.

For `NCCCc1ccc(-c2cccc(S(N)(=O)=O)c2-c2nnn[nH]2)cc1` [Example 305, 4′-(3-aminopropyl)-2-(1H-tetrazol-5-yl)-[1,1′-biphenyl]-3-sulfonamide], the IC50 at NDM-1 was determined as 0.0502 µM; at IMP-1, 0.333 µM; on VIM-1 (VIM-1 IC50, VIM-1 enzyme), 0.103 µM. For the same compound, the “Escherichia coli MITC95” value in test [1] was found to be 1.953 µM. In addition, the “Klebsiella pneumoniae MITC95” value in test [2] was 18.75 µM. In addition, the “Serratia marcescens MITC95” value in test [3] worked out at 4.688 µM.

Take `NCc1ccc(-c2cccc(S(N)(=O)=O)c2-c2nnn[nH]2)cn1` [Example 306, 3-(6-(aminomethyl)pyridin-3-yl)-2-(1H-tetrazol-5-yl)benzenesulfonamide]: the IC50 was found to be 0.104 µM at NDM-1, 3.74 µM on IMP-1 and 0.3 µM at VIM-1 (setting [4]). Further, the “Escherichia coli MITC95” value in test [1] amounted to 1.172 µM. Also, the “Klebsiella pneumoniae MITC95” value in test [2] was found to be 25 µM. Also, the “Serratia marcescens MITC95” value in test [3] amounted to 50 µM.

Consider `NCCc1ccc(-c2cccc(S(N)(=O)=O)c2-c2nnn[nH]2)cn1` [Example 307, 3-(6-(2-aminoethyl)pyridin-3-yl)-2-(1H-tetrazol-5-yl)benzenesulfonamide], for which the IC50 at NDM-1 was 0.174 µM; on IMP-1, 4.89 µM; at VIM-1 (setting [4]), 0.0962 µM. Besides, in test [1], the “Escherichia coli MITC95” value is 1.172 µM. In test [2], the “Klebsiella pneumoniae MITC95” value is 12.5 µM. Further, in test [3], the “Serratia marcescens MITC95” value is 50 µM.

Consider `N#Cc1ccc(-c2cccc(S(N)(=O)=O)c2-c2nnn[nH]2)cc1` [Example 308, 4′-cyano-2-(1H-tetrazol-5-yl)-[1,1′-biphenyl]-3-sulfonamide], for which the half-maximal inhibitory concentration (IC50) on NDM-1 worked out at 0.0113 µM; on IMP-1 it was 0.192 µM; at VIM-1 (VIM-1 IC50, VIM-1 enzyme) it was 0.164 µM. The “Escherichia coli MITC95” value in test [1] was 2.344 µM. Besides, the “Klebsiella pneumoniae MITC95” value in test [2] was determined as 75 µM. The “Serratia marcescens MITC95” value in test [3] amounted to 9.375 µM.

Turning to `NS(=O)(=O)c1cccc(-c2ccc(C3(O)CNC3)cc2)c1-c1nn[nH]n1` [Example 315, 4′-(3-hydroxyazetidin-3-yl)-2-(2H-tetrazol-5-yl)-[1,1′-biphenyl]-3-sulfonamide], the half-maximal inhibitory concentration (IC50) on NDM-1 turned out to be 0.0116 µM; on IMP-1 it was 0.51 µM; against VIM-1 (VIM-1 IC50, VIM-1 enzyme), 0.0334 µM. Moreover, the “Escherichia coli MITC95” value in test [1] came out at 0.3906 µM. The “Klebsiella pneumoniae MITC95” value in test [2] was 3.125 µM. Further, the “Serratia marcescens MITC95” value in test [3] amounted to 4.688 µM.

As for `NS(=O)(=O)c1cccc(-c2cnc(N3CCNCC3)nc2)c1-c1nn[nH]n1` [Example 320, 3-(2-(Piperazin-1-yl)pyrimidin-5-yl)-2-(2H-tetrazol-5-yl)benzenesulfonamide], the IC50 on NDM-1 is 0.0144 µM; on IMP-1, 0.294 µM; on VIM-1 (VIM-1 IC50, VIM-1 enzyme), 0.0359 µM. Further, the “Escherichia coli MITC95” value in test [1] was determined as 0.6836 µM. Moreover, the “Klebsiella pneumoniae MITC95” value in test [2] was 6.25 µM. Moreover, the “Serratia marcescens MITC95” value in test [3] came out at 9.375 µM.

Consider `NS(=O)(=O)c1cccc(-c2ccc(C(O)CO)cc2)c1-c1nn[nH]n1` (stereo not drawn) [Example 321, 4′-(1,2-dihydroxyethyl)-2-(2H-tetrazol-5-yl)-[1,1′-biphenyl]-3-sulfonamide], for which the half-maximal inhibitory concentration (IC50) on NDM-1 was determined as 0.0192 µM; on IMP-1 it was 0.0935 µM; against VIM-1 (VIM-1 IC50, VIM-1 enzyme), 0.199 µM. The “Escherichia coli MITC95” value in test [1] came out at 1.563 µM. Also, in test [2], the “Klebsiella pneumoniae MITC95” value stood at 50 µM. Also, the “Serratia marcescens MITC95” value in test [3] came out at 6.25 µM.

For the compound `NS(=O)(=O)c1cccc(-c2ccc(N3CCCCC3)nc2)c1-c1nn[nH]n1` [Example 322, 3-(6-(piperidin-1-yl)pyridin-3-yl)-2-(2H-tetrazol-5-yl)benzenesulfonamide], the IC50 on NDM-1 is 0.0365 µM; on IMP-1, 0.321 µM; at VIM-1 (setting [4]) it was 3.65 µM. In addition, the “Escherichia coli MITC95” value in test [1] came out at 7.813 µM. Moreover, in test [2], the “Klebsiella pneumoniae MITC95” value was determined as 200 µM. Further, the “Serratia marcescens MITC95” value in test [3] was 25 µM.

In the case of `NS(=O)(=O)c1cccc(-c2ccc(N3CCOCC3)nc2)c1-c1nn[nH]n1` [Example 323, 3-(6-morpholinopyridin-3-yl)-2-(2H-tetrazol-5-yl)benzenesulfonamide], the values for the half-inhibitory concentration (IC50) on NDM-1, on IMP-1 and on VIM-1 (setting [4]) were 0.00769 µM, 0.0706 µM and 0.151 µM, respectively. Further, in test [1], the “Escherichia coli MITC95” value turned out to be 2.344 µM. The “Klebsiella pneumoniae MITC95” value in test [2] was 200 µM. The “Serratia marcescens MITC95” value in test [3] came out at 12.5 µM.

As to `NS(=O)(=O)c1cccc(-c2ccc(N3CCNCC3)nc2)c1-c1nn[nH]n1` [Example 324, 3-(6-(piperazin-1-yl)pyridin-3-yl)-2-(2H-tetrazol-5-yl)benzenesulfonamide], the IC50 amounted to 0.105 µM on NDM-1, 1.02 µM at IMP-1 and 0.404 µM at VIM-1 (setting [4]). Moreover, the “Escherichia coli MITC95” value in test [1] worked out at 13.28 µM. Besides, the “Klebsiella pneumoniae MITC95” value in test [2] came out at 37.5 µM. Also, the “Serratia marcescens MITC95” value in test [3] was found to be 32.81 µM.

For the compound `Cc1ccccc1-c1cccc(S(N)(=O)=O)c1-c1nn[nH]n1` [Example 325, 2′-methyl-2-(2H-tetrazol-5-yl)-[1,1′-biphenyl]-3-sulfonamide], the values for the half-maximal inhibitory concentration (IC50) on NDM-1, on IMP-1 and on VIM-1 (setting [4]) were 0.0013 µM, 0.228 µM and 0.0131 µM, respectively. For the same compound, the “Escherichia coli MITC95” value in test [1] was determined as 3.125 µM. The “Klebsiella pneumoniae MITC95” value in test [2] was determined as 37.5 µM. The “Serratia marcescens MITC95” value in test [3] worked out at 25 µM.
